{"source": "patent US8765777B2", "about": "“Compositions and methods of use for tyrosine kinase inhibitors to treat pathogenic infection” (priority 2008, dated 2014)", "key": {"VV (strain WR)": {"system": "VV (strain WR)", "assay_type": "cell-based, Vaccinia virus"}, "EPEC (strain 2389/69)": {"system": "EPEC (strain 2389/69)", "experiment": "EPEC actin pedestal formation on 3T3 cells", "assay_type": "cell-based, enteropathogenic E. coli"}, "GFP-VV": {"system": "GFP-VV", "assay_type": "cell-based, Vaccinia virus"}, "HIV-1 Bal": {"system": "HIV-1 Bal", "experiment": "p24 production of macrophages infected with HIV-1 Bal", "assay_type": "cell-based"}, "VV [1]": {"system": "VV", "conditions": "100 mg/kg/day via subcutaneous osmotic pump, 10^4 pfu VV intraperitoneally, four days post infection; FIG. 4"}, "[2]": {"system": "VV extracellular enveloped virus (EEV)", "assay_type": "cell-based, Vaccinia virus"}, "VV [3]": {"system": "VV", "assay_type": "cell-based, Vaccinia virus"}, "[4]": {"experiment": "Tolerability of the drugs in uninfected mice"}, "[5]": {"system": "Mycobacterium tuberculosis (TB)", "assay_type": "cell-based"}, "[6]": {"system": "Abl-tyrosine family kinases", "conditions": "Shah et al. (2004) Science 305:399-401; cited from earlier work"}, "[7]": {"conditions": "up to 100 mg/kg/day i.p., 10 day period"}}, "note": "Entries after “also recorded” stand apart in the source; their conditions may differ.", "data": [{"smiles": "CC(C)(C)n1nc(-c2ccc(Cl)cc2)c2c(N)ncnc21", "note": "[PP2]", "values": [{"measurement": "concentrations that blocked actin tails", "setting": "VV (strain WR)", "result": "≥ 25", "unit": "µM"}, {"measurement": "pedestals in Abl−/−/Arg−/− cells", "setting": "EPEC (strain 2389/69); Abl−/−/Arg−/− cells", "result": "not"}, {"measurement": "pedestal formation", "setting": "EPEC (strain 2389/69); concentrations up to 100 μM, the highest tested", "result": "without effect"}]}, {"smiles": "Cc1ccc(NC(=O)c2ccc(CN3CCN(Cc4ccccc4)CC3)cc2)cc1Nc1nccc(-c2cccnc2)n1", "note": "[STI-X]", "values": [{"measurement": "plaque formation", "setting": "VV-WR", "result": "reduced"}, {"measurement": "tolerability by the cells in plaque assays", "setting": "VV-WR", "result": "well tolerated"}, {"measurement": "actin tail formation", "setting": "GFP-VV", "result": "failed to form actin tails"}, {"measurement": "percentage of cells containing DAPI-stained extranuclear viral replication factories", "setting": "GFP-VV", "result": 4, "unit": "%"}, {"measurement": "replication centers (DAPI staining or α-Ptyr pAb) and actin motility", "setting": "GFP-VV", "result": "still evident; also recorded: no effect"}, {"measurement": "viral entry (GFP-labeled virions and EVP staining)", "setting": "GFP-VV", "result": "little detectable effect on viral entry"}]}, {"smiles": "Cc1ccc(NC(=O)c2ccc(CN3CCN(C)CC3)cc2)cc1Nc1nccc(-c2cccnc2)n1", "note": "[STI-571, 4-[(4-Methyl-1-piperazinyl)methyl]-N-[4-methyl-3-[[4-(3-pyridinyl)-2-pyrimidinyl]amino]-phenyl]benzamide methanesulfonate]", "values": [{"measurement": "P24 day 7", "setting": "HIV-1 Bal; Cells + HIV-1 Bal + drug 1 μM, HIV-1 Bal alone 322 +/− 28", "result": "287 ± 31", "unit": "pg/mL"}, {"measurement": "P24 day 14", "setting": "HIV-1 Bal; Cells + HIV-1 Bal + drug 1 μM, HIV-1 Bal alone 956 +/− 34", "result": "744 ± 27", "unit": "pg/mL"}, {"measurement": "P24 day 7", "setting": "HIV-1 Bal; Cells + HIV-1 Bal + drug 5 μM", "result": "212 ± 44", "unit": "pg/mL"}, {"measurement": "P24 day 14", "setting": "HIV-1 Bal; Cells + HIV-1 Bal + drug 5 μM", "result": "556 ± 28", "unit": "pg/mL"}, {"measurement": "P24 day 7", "setting": "HIV-1 Bal; Cells + HIV-1 Bal + drug 10 μM", "result": "127 ± 22", "unit": "pg/mL"}, {"measurement": "P24 day 14", "setting": "HIV-1 Bal; Cells + HIV-1 Bal + drug 10 μM", "result": "245 ± 31", "unit": "pg/mL"}, {"measurement": "P24 day 7", "setting": "HIV-1 Bal; Cells + drug 1 μM, no virus", "result": "<10", "unit": "pg/mL"}, {"measurement": "P24 day 14", "setting": "HIV-1 Bal; Cells + drug 1 μM, no virus", "result": "<10", "unit": "pg/mL"}, {"measurement": "P24 day 7", "setting": "HIV-1 Bal; Cells + drug 5 μM, no virus", "result": "<10", "unit": "pg/mL"}, {"measurement": "P24 day 14", "setting": "HIV-1 Bal; Cells + drug 5 μM, no virus", "result": "<10", "unit": "pg/mL"}, {"measurement": "P24 day 7", "setting": "HIV-1 Bal; Cells + drug 10 μM, no virus", "result": "<10", "unit": "pg/mL"}, {"measurement": "P24 day 14", "setting": "HIV-1 Bal; Cells + drug 10 μM, no virus", "result": "<10", "unit": "pg/mL"}, {"measurement": "reduction of viral replication (p24 levels)", "setting": "HIV-1 Bal; dose dependent, 1-10 μM", "result": "up to 4 fold"}, {"measurement": "reduction of viral load (copies of VV UDG gene per 250 ng DNA of ovary)", "setting": "VV [1]", "result": "4-5 logs"}, {"measurement": "actin tail formation", "setting": "VV (strain WR)", "result": "did not block actin tail formation"}, {"measurement": "average number of actin tails per cell", "setting": "VV (strain WR)", "result": "~3", "unit": "per cell"}, {"measurement": "cells having no actin tails", "setting": "VV (strain WR)", "result": 30, "unit": "%"}, {"measurement": "number of actin tails per cell", "setting": "VV (strain WR)", "result": "no detectable effects"}, {"measurement": "reduction of average number of actin tails per cell", "setting": "VV (strain WR)", "result": 16, "unit": "fold"}, {"measurement": "viral replication (extranuclear DAPI staining) and transit of GFP-labeled virions to the cell periphery", "setting": "VV (strain WR)", "result": "no effect"}, {"measurement": "VV actin motility, actin tail formation or number", "setting": "VV (strain WR); methanesulfonate", "result": "no discernable effect; also recorded: no difference in actin tail formation or number was evident"}, {"measurement": "formation of comets apposed to plaques", "setting": "[2]", "result": "blocked the formation"}, {"measurement": "reduction in PFU of supernatant on BSC-40 cells", "setting": "[2]", "result": "~2", "unit": "fold"}, {"measurement": "amount of virus produced (viral replication)", "setting": "VV [3]", "result": "nearly equivalent amounts of virus"}, {"measurement": "EPEC pedestal formation", "setting": "EPEC (strain 2389/69); 25 μM", "result": "did not"}, {"measurement": "weight and other adverse effects in uninfected animals", "setting": "[4]; 100 mg/kg/day, subcutaneously implanted osmotic pumps", "result": "no loss in weight or other adverse effects"}, {"measurement": "tolerability", "setting": "[4]; intraperitoneal injection, up to 100 mg/kg/day in saline, up to 10 days", "result": "well tolerated"}, {"measurement": "pathology upon necropsy with drug alone", "setting": "[4]; [7]", "result": "no overt pathology"}, {"measurement": "weight loss with drug alone", "setting": "[4]; [7]", "result": "no indication of weight loss"}, {"measurement": "plaque formation", "setting": "VV-WR", "result": "did inhibit plaque formation"}, {"measurement": "intercellular survival of M. tuberculosis", "setting": "[5]", "result": "increases the intercellular survival"}]}, {"smiles": "Cc1nc(Nc2ncc(C(=O)Nc3c(C)cccc3Cl)s2)cc(N2CCN(CCO)CC2)n1", "note": "[BMS-354825, N-(2-chloro-6-methylphenyl)-2-(6-(4-(2-hydroxyethyl)piperazin-1-yl)-2-methylpryimidin-4-ylamino)thiazole-5-carboxamide]", "values": [{"measurement": "potency relative to STI-571", "setting": "[6]", "result": "two-log increased potency"}]}]}
